Source: patent US20240199542A1, “SUBSTITUTED PYRROLIDIN-2-ONES, SALTS THEREOF AND THEIR USE AS HERBICIDALLY ACTIVE SUBSTANCES” (Bayer Aktiengesellschaft, priority 2021, published 2024)

What was measured:
Format in all cases: in vivo
[1] = test system: Lolium multiflorum (LOLMU); experiment: Herbicidal pre-emergence action; details: 1280 g/ha, graded after ca. 3 weeks
Text: (§1) Seeds of mono- and dicotyledonous weed plants and crop plants were sown, in plastic or organic planting pots, in sandy loam and covered with soil. The compounds according to the invention, formulated in the form of wettable powders (WP) or as emulsifiable concentrates (EC), were applied to the surface of the covering soil as aqueous suspension or emulsion, with the addition of 0.5% of an additive, at an application rate of 600 1 of water/ha (converted).
(§2) Following treatment, the pots were placed in a greenhouse and kept under optimum growth conditions for the test plants. The visual grading of the damage to the test plants was carried out after ca. 3 weeks in comparison to untreated controls (herbicidal effect in percent (%): 100% effect=plants have died off, 0% effect=as control plants).
(§3) Tables A1 to A16, below, show the effects of selected compounds of the general formula (I) according to table 1 on various harmful plants and an application rate corresponding to 1280 g/ha or lower obtained by the experimental procedure mentioned above.

[2] = test system: Polygonum convolvulus (POLCO); experiment: Herbicidal pre-emergence action; details: 1280 g/ha, graded after ca. 3 weeks
Text: as §1, §2, §3

[3] = test system: Alopecurus myosuroides (ALOMY); experiment: Herbicidal pre-emergence action; details: graded after ca. 3 weeks
Text: as §1, §2, §3

Setaria viridis (SETVI) [4] = experiment: Herbicidal pre-emergence action; details: 1280 g/ha, graded after ca. 3 weeks
Text: as §1, §2, §3

Avena fatua (AVEFA) [5] = experiment: Herbicidal pre-emergence action; details: graded after ca. 3 weeks
Text: as §1, §2, §3

[6] = test system: Echinochloa crus-galli (ECHCG); experiment: Herbicidal pre-emergence action; details: 1280 g/ha, graded after ca. 3 weeks
Text: as §1, §2, §3

[7] = test system: Polygonum convolvulus (POLCO); experiment: Herbicidal post-emergence action; details: assessed after ca. 3 weeks
Text: (§4) Seeds of mono- and dicotyledonous weed plants and crop plants were sown, in plastic or organic planting pots, in sandy loam, covered with soil and grown in a greenhouse under controlled growth conditions. 2 to 3 weeks after sowing, the test plants were sprayed in the single-leaf stage. The compounds according to the invention, formulated in form of wettable powders (WP) or as emulsifiable concentrates (EC), were sprayed onto the green plant parts as aqueous suspension or emulsion, with the addition of 0.5% of an additive, at an application rate of 600 1 of water/ha (converted). The test plants were placed in the greenhouse for ca. 3 weeks under optimum growth conditions, and then the effect of the preparations was assessed visually in comparison with untreated controls (herbicidal effect in percent (%): 100% effect=plants have died off, 0% effect=as control plants).
(§5) Tables B1 to B16 below show the effects of selected compounds of the general formula (I) according to table 1 on various harmful plants and an application rate corresponding to 1280 g/ha or 320 g/ha obtained by the experimental procedure mentioned above.

[8] = test system: Alopecurus myosuroides (ALOMY); experiment: Herbicidal post-emergence action; details: assessed after ca. 3 weeks
Text: as §4, §5

Avena fatua (AVEFA) [9] = experiment: Herbicidal post-emergence action; details: 1280 g/ha, assessed after ca. 3 weeks
Text: as §4, §5

[10] = test system: Echinochloa crus-galli (ECHCG); experiment: Herbicidal post-emergence action; details: assessed after ca. 3 weeks
Text: as §4, §5

[11] = test system: Cyperus esculentus (CYPES); experiment: Herbicidal pre-emergence action; details: graded after ca. 3 weeks
Text: as §1, §2, §3

Veronica persica (VERPE) = experiment: Herbicidal pre-emergence action; details: graded after ca. 3 weeks
Text: as §1, §2, §3

[12] = test system: Lolium multiflorum (LOLMU); experiment: Herbicidal post-emergence action; details: assessed after ca. 3 weeks
Text: as §4, §5

Setaria viridis (SETVI) [13] = experiment: Herbicidal post-emergence action; details: 1280 g/ha, assessed after ca. 3 weeks
Text: as §4, §5

Row | SMILES | Pre-emergence activity against LOLMU [1] [%] | Pre-emergence activity against ALOMY ([3]; 1280 g/ha) [%] | Pre-emergence activity against SETVI (Setaria viridis (SETVI) [4]) [%] | Pre-emergence activity against AVEFA (Avena fatua (AVEFA) [5]; 1280 g/ha) [%] | Pre-emergence activity against ECHCG [6] [%] | Post-emergence activity against POLCO ([7]; 1280 g/ha) [%] | Post-emergence activity against ALOMY ([8]; 1280 g/ha) [%] | Post-emergence activity against AVEFA (Avena fatua (AVEFA) [9]) [%] | Post-emergence activity against ECHCG ([10]; 1280 g/ha) [%] | Pre-emergence activity against CYPES ([11]; 1280 g/ha) [%] | Post-emergence activity against LOLMU ([12]; 1280 g/ha) [%] | other results
1 | O=C(CC1CCC(=O)N1Cc1cccc(F)c1F)OC1CCCC1 (racemic) [Example I-017] | 80 | 90 | 90 | 100 | 90 | 80 | 80 | 90 | 90 |  |  | Pre-emergence activity against POLCO [2]: 80%
2 | C#CCOC(=O)CC1CCC(=O)N1Cc1cccc(F)c1F (racemic) [Example I-023] | 80 | 90 | 90 | 100 | 80 |  | 80 | 80 | 90 | 80 | 80 | Pre-emergence activity against VERPE (Veronica persica (VERPE); 1280 g/ha): 80%; Post-emergence activity against SETVI (Setaria viridis (SETVI) [13]): 80%
3 | C=CCCOC(=O)CC1CCC(=O)N1Cc1cccc(F)c1F (racemic) [Example I-026] | 90 | 90 | 80 | 100 | 90 | 80 | 80 | 90 | 80 | 90 | 80 | 
4 | O=C(CC1CCC(=O)N1Cc1cccc(F)c1F)OCCOc1ccccc1 (racemic) [Example I-027] |  |  |  |  |  |  |  |  |  |  |  | Pre-emergence activity against CYPES ([11]; 320 g/ha): 80%; Pre-emergence activity against ALOMY ([3]; 320 g/ha): 80%; Pre-emergence activity against AVEFA (Avena fatua (AVEFA) [5]; 320 g/ha): 90%; Post-emergence activity against LOLMU ([12]; 320 g/ha): 80%; Post-emergence activity against POLCO ([7]; 320 g/ha): 80%; Post-emergence activity against ECHCG ([10]; 320 g/ha): 90%
5 | COc1ccc(SCCOC(=O)CC2CCC(=O)N2Cc2cccc(F)c2F)cc1 (racemic) [Example I-040] |  | 90 |  | 90 | 80 | 80 | 90 |  | 80 | 80 | 80 | Pre-emergence activity against VERPE (Veronica persica (VERPE); 1280 g/ha): 90%
6 | Cc1ccc(SCCOC(=O)CC2CCC(=O)N2Cc2cccc(F)c2F)cc1 (racemic) [Example I-041] |  |  |  |  |  |  |  |  |  |  |  | Pre-emergence activity against VERPE (Veronica persica (VERPE); 320 g/ha): 90%; Pre-emergence activity against ALOMY ([3]; 320 g/ha): 80%; Pre-emergence activity against AVEFA (Avena fatua (AVEFA) [5]; 320 g/ha): 90%; Post-emergence activity against LOLMU ([12]; 320 g/ha): 80%; Post-emergence activity against POLCO ([7]; 320 g/ha): 80%; Post-emergence activity against ALOMY ([8]; 320 g/ha): 80%; Post-emergence activity against ECHCG ([10]; 320 g/ha): 90%
7 | O=C(CC1CCC(=O)N1Cc1cccc(F)c1F)N1CCCC1 (racemic) [Example I-071] |  | 80 |  | 90 |  | 80 |  | 80 |  |  |  | Pre-emergence activity against POLCO [2]: 80%
